System: S. aureus (ATCC #29213) cells
Assay: Membrane depolarization assay (DiOC2(3), flow cytometry)
Format: cell-based
Conditions: 6 μg/mL, 15 minutes
Procedure: S. aureus (ATCC #29213) cells were grown to log phase (14 h) in Mueller Hinton Broth cation-adjusted (MHB50) and were diluted to 0.07 OD600 with media. One mL aliquots were transferred to 1.5 mL centrifuge tubes and treated with the following in triplicate: 10 μL DMSO (control), 10 μL of 600 μg/mL ecteinamycin, 10 μL of 3.2 mg/mL ecteinamycin (1), 10 μL of 500 μM carbonyl cyanide m-chlorophenythydrazone (CCCP), and 10 μL of 3.2 mg/mL rifampicin. Additionally, each tube received 10 μL of 3 mM DiOC2(3) (3,3′-diethyloxacarbocyanine iodide). The tubes were shaken for 15 minutes at room temperature. The cells were then analyzed with a FACSCalibur (BD Biosciences) flow cytometer and CellQuestPro software (BD Biosciences). Collected data represent the geometric means of fluorescence of 40,000 gated events.
Flow cytometry was used to determine if ecteinamycin, like other polyether ionophore antibiotics, depolarizes cell membranes. 3,3′-diethyloxacarbocyanine iodide (“DiOC2(3)”) fluoresces green in bacterial cells but shifts to red when the cell membrane is depolarized. Therefore, the ratio of red to green fluorescence is indicative of the membrane potential. S. aureus ATCC […] cells were treated with ecteinamycin at concentrations of 6 and 32 μg/mL.
All cells except the DMSO negative control were treated with DiOC2(3) and analyzed by flow cytometry. […]

C=C1OC(=O)C(C(=O)CC2OC(C(C)C(O)C(CC)C(=O)C(C)(O)C3CCC(CC)(C4CCC(O)(C(C)OC)C(C)O4)O3)C(C)CC2C)=C1O (stereo not shown) [ecteinamycin]
membrane depolarization (ratio of red to green fluorescence): demonstrated membrane depolarization
